Source: article PMC6321136, “Combined In Vitro Studies and in Silico Target Fishing for the Evaluation of the Biological Activities of Diphylleia cymosa and Podophyllum hexandrum” (Molecules, 2018)
Where two headings read alike, the source gives them in different places.

Assays:
[1] = test system: Agonist, hypoxia; parameters: method as in PubChem Bioassay AID 1224894; settings: ref PubChem Bioassay AID 1224894; cited from earlier work
[2] = test system: Cytotoxicity, Antagonist, androgen receptor (AR); parameters: method as in PubChem Bioassay AID 743041; settings: ref PubChem Bioassay AID 743041; cited from earlier work
[3] = test system: Activators, heat shock response; parameters: method as in PubChem Bioassay AID 743228; settings: ref PubChem Bioassay AID 743228; cited from earlier work
[4] = test system: Cytotoxicity, Agonist, endoplasmic reticulum stress response; parameters: method as in PubChem Bioassay AID 1159517; settings: ref PubChem Bioassay AID 1159517; cited from earlier work
[5] = test system: Antagonist, NFkB Signaling Pathway; parameters: method as in PubChem Bioassay AID 624479; settings: ref PubChem Bioassay AID 624479; cited from earlier work
[6] = test system: Salmonella choleraesuis subs. choleraesuis sorotype Typhi BM/Panama-TY2; assay: Antibacterial microdilution assay; format: cell-based
[7] = test system: Antagonist, peroxisome proliferator-activated receptor delta (PPARd); parameters: method as in PubChem Bioassay AID 743215; settings: ref PubChem Bioassay AID 743215; cited from earlier work
[8] = test system: Anticancer, non-Hodgkin lymphoma; parameters: method as in PubChem Bioassay AID 651568; settings: ref PubChem Bioassay AID 651568; cited from earlier work
[9] = parameters: method as in Dar et al. [63]; settings: ref Dar et al. [63]; cited from earlier work
[10] = test system: Anticancer, Colon Tumor; parameters: method as in PubChem Bioassay AID 771; settings: ref PubChem Bioassay AID 771; cited from earlier work
[11] = test system: Agonist, thyroid stimulating hormone receptor (TSHR); parameters: method as in PubChem Bioassay AID 1224843; settings: ref PubChem Bioassay AID 1224843; cited from earlier work
[12] = test system: ADMET, Cytochrome P450 3A4; parameters: method as in PubChem Bioassay AID 884; settings: ref PubChem Bioassay AID 884; cited from earlier work
[13] = test system: Agonist, constitutive androstane receptor (CAR); parameters: method as in PubChem Bioassay AID 1224839; settings: ref PubChem Bioassay AID 1224839; cited from earlier work
[14] = test system: Chlamydomonas reinhardtii Algae Gravitaxis; parameters: method as in PubChem Bioassay AID 463189; settings: ref PubChem Bioassay AID 463189; cited from earlier work
[15] = test system: Cytotoxicity, Antagonist, androgen receptor (AR); parameters: method as in PubChem Bioassay AID 743033; settings: ref PubChem Bioassay AID 743033; cited from earlier work
[16] = test system: Cytotoxicity, Agonist, vitamin D receptor (VDR); parameters: method as in PubChem Bioassay AID 743224; settings: ref PubChem Bioassay AID 743224; cited from earlier work
[17] = test system: Antagonist, androgen receptor (AR); parameters: method as in PubChem Bioassay AID 743035; settings: ref PubChem Bioassay AID 743035; cited from earlier work
[18] = test system: Agonist, Histone H2A.x; parameters: method as in PubChem Bioassay AID 1224845; settings: ref PubChem Bioassay AID 1224845; cited from earlier work
[19] = test system: Antagonist, vitamin D receptor (VDR); parameters: method as in PubChem Bioassay AID 743242; settings: ref PubChem Bioassay AID 743242; cited from earlier work
[20] = test system: Anti-Inflammatory model; parameters: method as in PubChem Bioassay AID 1267; settings: ref PubChem Bioassay AID 1267; cited from earlier work
[21] = test system: Anti-Inflammatory model; parameters: method as in PubChem Bioassay AID 438; settings: ref PubChem Bioassay AID 438; cited from earlier work
[22] = test system: Anti-Inflammatory model; parameters: method as in PubChem Bioassay AID 602277; settings: ref PubChem Bioassay AID 602277; cited from earlier work
[23] = test system: Agonist, Histone H2A.x; parameters: method as in PubChem Bioassay AID 1224896; settings: ref PubChem Bioassay AID 1224896; cited from earlier work
[24] = test system: Antagonist, retinoid-related orphan receptor gamma (ROR-gamma); parameters: method as in PubChem Bioassay AID 1159523; settings: ref PubChem Bioassay AID 1159523; cited from earlier work
[25] = test system: Angiogenesis model; parameters: method as in PubChem Bioassay AID 1117337; settings: ref PubChem Bioassay AID 1117337; cited from earlier work
[26] = test system: Agonist, glucocorticoid receptor (GR); parameters: method as in PubChem Bioassay AID 720719; settings: ref PubChem Bioassay AID 720719; cited from earlier work
[27] = test system: ADMET, Cytochrome P450 3A4; parameters: method as in PubChem Bioassay AID 885; settings: ref PubChem Bioassay AID 885; cited from earlier work
[28] = test system: Antagonist, androgen receptor (AR); parameters: method as in PubChem Bioassay AID 1259247; settings: ref PubChem Bioassay AID 1259247; cited from earlier work
[29] = test system: Cytotoxicity, Agonist, constitutive androstane receptor (CAR); parameters: method as in PubChem Bioassay AID 1224836; settings: ref PubChem Bioassay AID 1224836; cited from earlier work

COc1cc([C@@H]2c3cc4c(cc3[C@H](O)[C@H]3COC(=O)[C@H]23)OCO4)cc(OC)c1OC [Podophyllotoxin, podophyllotoxin]
Exper. Activity [1]: Inactive
Exper. Activity [2]: Inactive
Exper. Activity [3]: Inactive
Exper. Activity [4]: Inactive
Exper. Activity [5]: Inactive
Salmonella Typhi Mean ± SD (percentage of inhibition of microbial growth) ([6]; 250 µg/mL): No antibacterial activity
inhibition at 250 µg/mL ([6]; Salmonella enterica, read-out: Salmonella Typhi Mean ± SD (percentage of inhibition of microbial growth)): 31.6 ± 7.54%
Exper. Activity [7]: Inactive
Exper. Activity [8]: Inactive
IC50 DPPH sequestration [9]: higher than 250 μg/mL
Exper. Activity [10]: Inactive
Exper. Activity [11]: Inactive
Exper. Activity [12]: Active
Exper. Activity [13]: Inactive
Exper. Activity [14]: Inactive
Exper. Activity [15]: Inactive
Exper. Activity [16]: Inactive
Exper. Activity [17]: Active
Exper. Activity [18]: Inactive
Exper. Activity [19]: Active
Exper. Activity [20]: Inactive
Exper. Activity [21]: Active
Exper. Activity [22]: Active
Exper. Activity [23]: Inactive
Exper. Activity [24]: Active
Exper. Activity [25]: Active
Exper. Activity [26]: Inactive
Exper. Activity [27]: Inactive
Exper. Activity [28]: Inactive
Exper. Activity [29]: Inactive
